# How the values were obtained:
# [1] = tested on: rat
# Source text: The chosen dose can be higher, as long as within the pharmacological range.
# [2] = Hygroscopicity - Dynamic Vapor Sorption (DVS); format: physicochemical
# Description: Hygroscopicity—Dynamic Vapor Sorption (DVS)
# DVS is a gravimetric technique that measures how quickly and how much of a solvent (water) is sorbed by a sample. The relative humidity or vapor concentration surrounding the sample is varied while the change in mass of the sample is measured. […] The mass values at each relative humidity step are used to generate an isotherm. Isotherms are divided in two components: sorption for increasing humidity steps and desorption for decreasing humidity steps. A plot of kinetic data is also used to show the change in mass and humidity as a function of time.
# The samples were analyzed using a TA Q5000 automated dynamic vapor sorption analyzer. The samples were dried at 60° C. over 180 minutes and then cooled to 25° C. with a dry nitrogen purge. The samples were then subjected to 0 to 90% RH, back to 10% RH at 25° C. in 10% RH steps.
# [3] = clinical; conditions: for CL/F (apparent clearance), Mean / Tlast (time of last measurable concentration), Median / Tlast, Max / Tlast, Min / Tmax, Min / Tmax, Max / AUC(0-t): single oral dose, N = 6; for CL/F (apparent clearance), Mean / Tlast (time of last measurable concentration), Median / Tlast, Max / Tlast, Min / Tmax, Min / Tmax, Max / Tmax / half-life / Vd/F / AUC(0-inf) / Cmax / AUC(0-t): plasma; for Tmax / half-life / Vd/F / AUC(0-inf) / Cmax / AUC(0-t): human; for AUC(0-t): Mean
# Source text: The study comprised a single ascending dose (SAD), sequential cohort study, incorporating a food effect (FE) evaluation. Up to 40 subjects were to be studied in 5 cohorts (Cohorts A1 to A5), each cohort consisting of 8 subjects.
# Subjects in Cohort A3 participated in 2 treatment periods (once in Fed state, once in Fasted state) separated by a minimum of 6 days. All subjects were to return for a poststudy on Day 5 (+2 days) after their final dose for a final safety assessment.
# All doses for Cohorts A1, A2, A4, and A5 were administered in the fasted state in the moming of Day 1.
# The actual blood sampling dates and times relative to dosing time were listed by subject and nominal sampling time, with time deviation calculated, for all subjects with available plasma concentration data.
# For PK concentration data, the number of non-missing values, number of below limit of quantification (BLQ) values, arithmetic mean, standard deviation, median, minimum, maximum, coefficient of variation (CV %), geometric mean and geometric coefficient of variation (geo CV %) values was presented.
# For PK parameter data, the number of non-missing values, arithmetic mean, standard deviation, median, minimum, and maximum values were presented.
# [4] = target: μ-opioid receptor (Rattus norvegicus, UniProt P33535)
# [5] = tested on: rats; conditions: exposures far above the ED50 in rats
# [6] = not given; remark: listed apart in the source
# μ-opioid receptor, sequence (P33535 whole entry): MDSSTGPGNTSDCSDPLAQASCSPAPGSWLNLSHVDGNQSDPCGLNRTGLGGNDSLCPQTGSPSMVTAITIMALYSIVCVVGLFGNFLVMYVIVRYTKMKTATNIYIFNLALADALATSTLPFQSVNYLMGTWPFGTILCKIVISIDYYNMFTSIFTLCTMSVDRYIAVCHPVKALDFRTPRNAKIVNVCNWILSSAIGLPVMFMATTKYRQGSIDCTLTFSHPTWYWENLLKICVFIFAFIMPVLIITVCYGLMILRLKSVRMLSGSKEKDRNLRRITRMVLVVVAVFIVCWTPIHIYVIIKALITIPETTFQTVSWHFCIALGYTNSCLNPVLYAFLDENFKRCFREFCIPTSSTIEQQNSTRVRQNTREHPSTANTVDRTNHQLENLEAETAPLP
compound,measurement,setting,value
"CN(C)C[C@H]1CN(CCc2ccsc2)CC[C@]1(O)c1cccc(C(N)=O)c1 [Compound I, 3-(3S, 4R)-3-((dimethylamino)methyl)-4-hydroxy-1-(2-(thiophen-3-yl)ethyl)piperidin-4-yl-benzamide]",NOAEL HED for 50 kg subject,[1],485 mg
same,maximum moisture uptake,[2],approximately 10.5 wt %
same,hygroscopicity,"[2]; in words, listed as Compound I free base",hygroscopic
same,"CL/F (apparent clearance), Mean",[3]; 20 mg DS (Fasted),1130 L/h
same,"Tlast (time of last measurable concentration), Median",[3]; 20 mg DS (Fasted),4.00 h
same,"Tlast, Max",[3]; 20 mg DS (Fasted),4.03 h
same,"Tlast, Min",[3]; 20 mg DS (Fasted),3.50 h
same,"Tmax, Min",[3]; 20 mg DS (Fasted),0.500 h
same,CL/F,[3]; 20 mg fasted,1130 L/h
same,mean concentrations measurable through,[3]; 20 mg fasted,3.5 h
same,"CL/F (apparent clearance), Mean",[3]; 60 mg DS (Fasted),937 L/h
same,"Tlast (time of last measurable concentration), Median",[3]; 60 mg DS (Fasted),12.0 h
same,"Tlast, Max",[3]; 60 mg DS (Fasted),24.0 h
same,"Tlast, Min",[3]; 60 mg DS (Fasted),6.00 h
same,"Tmax, Max",[3]; 60 mg DS (Fasted),3.02 h
same,CL/F,[3]; 60 mg fasted,937 L/h
same,mean concentrations measurable through,[3]; 60 mg fasted,8 h
same,"CL/F (apparent clearance), Mean",[3]; 120 mg DS (Fasted),541 L/h
same,"Tlast (time of last measurable concentration), Median",[3]; 120 mg DS (Fasted),36.0 h
same,"Tlast, Max",[3]; 120 mg DS (Fasted),48.0 h
same,"Tlast, Min",[3]; 120 mg DS (Fasted),16.0 h
same,"Tmax, Max",[3]; 120 mg DS (Fasted),3.00 h
same,mean concentrations measurable through,[3]; 120 mg fasted,36 h
same,"CL/F (apparent clearance), Mean",[3]; 200 mg DS (Fasted),452 L/h
same,"Tlast (time of last measurable concentration), Median",[3]; 200 mg DS (Fasted),48.0 h
same,"Tlast, Max",[3]; 200 mg DS (Fasted),48.1 h
same,"Tlast, Min",[3]; 200 mg DS (Fasted),36.0 h
same,"Tmax, Max",[3]; 200 mg DS (Fasted),2.02 h
same,"Tmax, Min",[3]; 200 mg DS (Fasted),1.00 h
same,mean concentrations measurable through,[3]; 200 mg fasted,36 h
same,"CL/F (apparent clearance), Mean",[3]; 400 mg DS (Fasted),500 L/h
same,"Tlast (time of last measurable concentration), Median",[3]; 400 mg DS (Fasted),48.0 h
same,"Tlast, Max",[3]; 400 mg DS (Fasted),48.0 h
same,"Tlast, Min",[3]; 400 mg DS (Fasted),48.0 h
same,"Tmax, Max",[3]; 400 mg DS (Fasted),2.02 h
same,"Tmax, Min",[3]; 400 mg DS (Fasted),1.00 h
same,mean concentrations measurable through,[3]; 400 mg fasted,48 h
same,Tmax,[3]; oral,1.5 to 2.5 h
same,half-life,[3]; oral,29.4 to 31.4 h
same,Vd/F,"[3]; oral, 20 mg",1380 L
same,half-life,"[3]; oral, 20 mg",1.05 h
same,Vd/F,"[3]; oral, 60 mg",6790 L
same,half-life,"[3]; oral, 60 mg",7.89 h
same,Vd/F,"[3]; oral, 120 mg",12300 L
same,Vd/F,"[3]; oral, 200 mg",18100 L
same,Vd/F,"[3]; oral, 400 mg",20400 L
same,AUC(0-inf),"[3]; po, 20 mg",18.4 ng·h/mL
same,Cmax,"[3]; po, 20 mg",9.69 ng/mL
same,Tmax,"[3]; po, 20 mg",2.5 h
same,Vd/F,"[3]; po, 20 mg",1380 L
same,half-life,"[3]; po, 20 mg",1.05 h
same,AUC(0-t),"[3]; po, 20 mg, AUC0-last (zero to 24 hours postdose), 20 mg DS (Fasted)",16.5 ng·h/mL
same,AUC(0-t),"[3]; po, 20 mg, AUC0-t (zero to the last quantifiable concentration), 20 mg DS (Fasted)",13.9 ng·h/mL
same,AUC(0-inf),"[3]; po, 60 mg",79.8 ng·h/mL
same,Cmax,"[3]; po, 60 mg",51.7 ng/mL
same,Tmax,"[3]; po, 60 mg",2.25 h
same,Vd/F,"[3]; po, 60 mg",6790 L
same,half-life,"[3]; po, 60 mg",7.89 h
same,AUC(0-t),"[3]; po, 60 mg, AUC0-last (zero to 24 hours postdose), 60 mg DS (Fasted)",71.6 ng·h/mL
same,AUC(0-t),"[3]; po, 60 mg, AUC0-t (zero to the last quantifiable concentration), 60 mg DS (Fasted)",67.1 ng·h/mL
same,AUC(0-inf),"[3]; po, 120 mg",245 ng·h/mL
same,Cmax,"[3]; po, 120 mg",98.5 ng/mL
same,Tmax,"[3]; po, 120 mg",2.28 h
same,Vd/F,"[3]; po, 120 mg",12300 L
same,half-life,"[3]; po, 120 mg",31.4 h
same,AUC(0-t),"[3]; po, 120 mg, AUC0-last (zero to 24 hours postdose), 120 mg DS (Fasted)",211 ng·h/mL
same,AUC(0-t),"[3]; po, 120 mg, AUC0-t (zero to the last quantifiable concentration), 120 mg DS (Fasted)",231 ng·h/mL
same,AUC(0-inf),"[3]; po, 200 mg",446 ng·h/mL
same,Cmax,"[3]; po, 200 mg",220 ng/mL
same,Tmax,"[3]; po, 200 mg",2 h
same,Vd/F,"[3]; po, 200 mg",18100 L
same,half-life,"[3]; po, 200 mg",29.4 h
same,AUC(0-t),"[3]; po, 200 mg, AUC0-last (zero to 24 hours postdose), 200 mg DS (Fasted)",346 ng·h/mL
same,AUC(0-t),"[3]; po, 200 mg, AUC0-t (zero to the last quantifiable concentration), 200 mg DS (Fasted)",381 ng·h/mL
same,AUC(0-inf),"[3]; po, 400 mg",832 ng·h/mL
same,Cmax,"[3]; po, 400 mg",318 ng/mL
same,Tmax,"[3]; po, 400 mg",1.5 h
same,Vd/F,"[3]; po, 400 mg",20400 L
same,half-life,"[3]; po, 400 mg",32.1 h
same,AUC(0-t),"[3]; po, 400 mg, AUC0-last (zero to 24 hours postdose), 400 mg DS (Fasted)",698 ng·h/mL
same,AUC(0-t),"[3]; po, 400 mg, AUC0-t (zero to the last quantifiable concentration), 400 mg DS (Fasted)",794 ng·h/mL
same,mediation of antinociceptive effect,[4]; in vivo,mediated exclusively by μ-opioid receptor
same,pain relief in preclinical models,[4]; preclinical models,comparable to Schedule 2 opiates
same,abuse liability,"Conditioned Place Preference, Drug Self-Administration, Drug Discrimination",no abuse liability
same,Withdrawal symptoms,preclinical model,only minimal Withdrawal symptoms
same,respiratory depression or other opiate-based adverse effects,[5],no respiratory depression or other opiate-based adverse effects
same,opiate-associated effects,[6]; single dose 20-400 mg,no system opiate-associated effects noted
same,tolerability,"[6]; single dose ranging from 20 mg up to 400 mg, healthy subjects",well-tolerated
